# Measurements published in patent US20230021483A1, “[…] […] METHOD AND CLASSIFICATION OF PHARMACEUTICAL COMPONENTS BY USING TRANSCRIPTOMES” (National Institutes of Biomedical Innovation, Health and …, priority 2016, published 2023).
# Columns and labels:
# Format in all cases: in vivo, C57BL/6 mice
# [1] = tested on: spleen (SP); assay: Whole organ transcriptome (GeneChip microarray) of spleen 6 h after adjuvant administration: sDEGs, hierarchical clustering; conditions: hierarchical clustering; also: key: G1 (interferon signaling); G2 (metabolism of lipids and lipoproteins); G3 (response to stress); G4 (response to wounding); G5 (phosphate-containing compound metabolic process); G6 (phagosome)
# [2] = tested on: inguinal lymph nodes (LN); assay: Whole organ transcriptome (GeneChip microarray) of draining inguinal lymph nodes 6 h after adjuvant administration: sDEGs, gene modules, hierarchical clustering; conditions: hierarchical clustering, lymph node; also: key: G1 (interferon signaling); G2 (metabolism of lipids and lipoproteins); G3 (response to stress); G4 (response to wounding); G5 (phosphate-containing compound metabolic process); G6 (phagosome)
# [3] = tested on: preferentially upregulated genes in LV, SP, LN; assay: Z-score-based differential gene expression analysis (adjuvant group- or adjuvant-associated genes, 40 module mapping, TargetMine annotation); conditions: ID, LV
# Description: Each sample's FC value was converted into a z-score on a gene basis by using the entire data set for each organ. The Z-score of the triplicates of interest were summed for each adjuvant. For example, the three sample z-score in the LV sample following cdiGMP administration was summed on a gene-by-gene basis, after which the summed scores of >3 genes were selected as relatively preferentially expressed genes in the LV after cdiGMP administration. The following threshold was applied for selections. […] G2^LV: ALM_IP(z>1) & bCD(z>1) & ENDCN(z>1) & FCA(z>1). […] G4^LV: MALP2s(z>3). […] G2^SP: ENDCN_x2+ENDCN_x3(z>2) & ALM_IP(z>3) & bCD(z>3). […] G4^SP: ADX_ID_x2+ADX_ID_x3(z>2) & ADX_IP(z>3) & MALP2s(z>3). […] G2^LN: bCD(z>3) & FCA(z>3). […] G5^LN: K3(z>1.5) & K3SPG_x1+K3SPG_x2(z>1) & D35_x1+D35_x3(z>1). G6^LN: AddaVax(z>3).
structure (smiles),measurement,setting,value
"CCOCc1nc2c(N)nc3ccccc3c2n1CC(C)(C)O [R848, 4-amino-2-(ethoxymethyl)-a,a-dimethyl-1H-imidazo[4,5-c]quinoline-1-ethanol]",adjuvant group (cluster) in SP,[1],G1
same,adjuvant group (cluster) in LN,[2],G1
same,"Adar 1425405_a_at (Group G1, Modules 20)",[3]; sample x1,1.63
same,"Adar 1434268_at (Group G1, Modules 20)",[3]; sample x1,2.77
same,"Ddx58 1436562_at (Group G1, Modules 20)",[3]; sample x1,2.64
same,"Ddx58 1456890_at (Group G1, Modules 20)",[3]; sample x1,2.42
same,"Eif2ak2 1422005_at (Group G1, Modules 20)",[3]; sample x1,2.43
same,"G3bp2 1421323_a_at (Group G1, Modules 20)",[3]; sample x1,2.13
same,"Gm9706///Isg15 1431591_s_at (Group G1, Modules 20)",[3]; sample x1,2.55
same,"H2-T10///H2-T22///H2-T9 1449875_s_at (Group G1, Modules 20)",[3]; sample x1,2.05
same,"Ifih1 1426276_at (Group G1, Modules 20)",[3]; sample x1,3.25
same,"Ifit1 1450783_at (Group G1, Modules 20)",[3]; sample x1,1.54
same,"Ifit3 1449025_at (Group G1, Modules 20)",[3]; sample x1,2.19
same,"Irf7 1417244_a_at (Group G1, Modules 20)",[3]; sample x1,2.27
same,"Irgm1 1418825_at (Group G1, Modules 20)",[3]; sample x1,2.87
same,"Mndal 1426906_at (Group G1, Modules 20)",[3]; sample x1,1.65
same,"Pml 1448757_at (Group G1, Modules 20)",[3]; sample x1,1.77
same,"Pml 1456103_at (Group G1, Modules 20)",[3]; sample x1,3.66
same,"Rnf213 1455500_at (Group G1, Modules 20)",[3]; sample x1,1.29
same,"Rsad2 1436058_at (Group G1, Modules 20)",[3]; sample x1,1.97
same,"Shisa5 1423986_a_at (Group G1, Modules 20)",[3]; sample x1,2.93
same,"Shisa5 1437503_a_at (Group G1, Modules 20)",[3]; sample x1,3.09
same,"Stat1 1450033_a_at (Group G1, Modules 20)",[3]; sample x1,1.4
same,"Stat1 1450034_at (Group G1, Modules 20)",[3]; sample x1,2.37
same,"Tdrd7 1426716_at (Group G1, Modules 20)",[3]; sample x1,1.79
same,"Tor1aip2 1418115_s_at (Group G1, Modules 20)",[3]; sample x1,1.53
same,"Tor1aip2 1418116_at (Group G1, Modules 20)",[3]; sample x1,1.45
same,"Tor1aip2 1435526_at (Group G1, Modules 20)",[3]; sample x1,3.12
same,"Trim12a 1437432_a_at (Group G1, Modules 20)",[3]; sample x1,2.13
same,"Uba7 1426970_a_at (Group G1, Modules 20)",[3]; sample x1,2.64
same,"Adar 1425405_a_at (Group G1, Modules 20)",[3]; sample x2,1.17
same,"Adar 1434268_at (Group G1, Modules 20)",[3]; sample x2,1.8
same,"Ddx58 1436562_at (Group G1, Modules 20)",[3]; sample x2,2.33
same,"Ddx58 1456890_at (Group G1, Modules 20)",[3]; sample x2,1.34
same,"Eif2ak2 1422005_at (Group G1, Modules 20)",[3]; sample x2,1.56
same,"G3bp2 1421323_a_at (Group G1, Modules 20)",[3]; sample x2,1.21
same,"Gm9706///Isg15 1431591_s_at (Group G1, Modules 20)",[3]; sample x2,2.1
same,"H2-T10///H2-T22///H2-T9 1449875_s_at (Group G1, Modules 20)",[3]; sample x2,2.01
same,"Ifih1 1426276_at (Group G1, Modules 20)",[3]; sample x2,2.46
same,"Ifit1 1450783_at (Group G1, Modules 20)",[3]; sample x2,1.14
same,"Ifit3 1449025_at (Group G1, Modules 20)",[3]; sample x2,1.76
same,"Irf7 1417244_a_at (Group G1, Modules 20)",[3]; sample x2,2.39
same,"Irgm1 1418825_at (Group G1, Modules 20)",[3]; sample x2,2.12
same,"Mndal 1426906_at (Group G1, Modules 20)",[3]; sample x2,1.42
same,"Pml 1448757_at (Group G1, Modules 20)",[3]; sample x2,1.53
same,"Pml 1456103_at (Group G1, Modules 20)",[3]; sample x2,1.62
same,"Rnf213 1455500_at (Group G1, Modules 20)",[3]; sample x2,1.03
same,"Rsad2 1436058_at (Group G1, Modules 20)",[3]; sample x2,1.77
same,"Shisa5 1423986_a_at (Group G1, Modules 20)",[3]; sample x2,2.32
same,"Shisa5 1437503_a_at (Group G1, Modules 20)",[3]; sample x2,2.43
same,"Stat1 1450033_a_at (Group G1, Modules 20)",[3]; sample x2,1.2
same,"Stat1 1450034_at (Group G1, Modules 20)",[3]; sample x2,1.92
same,"Tdrd7 1426716_at (Group G1, Modules 20)",[3]; sample x2,1.21
same,"Tor1aip2 1418115_s_at (Group G1, Modules 20)",[3]; sample x2,1.08
same,"Tor1aip2 1418116_at (Group G1, Modules 20)",[3]; sample x2,1.22
same,"Tor1aip2 1435526_at (Group G1, Modules 20)",[3]; sample x2,2.18
same,"Trim12a 1437432_a_at (Group G1, Modules 20)",[3]; sample x2,1.94
same,"Uba7 1426970_a_at (Group G1, Modules 20)",[3]; sample x2,2.42
same,"Adar 1425405_a_at (Group G1, Modules 20)",[3]; sample x3,0.96
same,"Adar 1434268_at (Group G1, Modules 20)",[3]; sample x3,1
same,"Ddx58 1436562_at (Group G1, Modules 20)",[3]; sample x3,1.6
same,"Ddx58 1456890_at (Group G1, Modules 20)",[3]; sample x3,0.95
same,"Eif2ak2 1422005_at (Group G1, Modules 20)",[3]; sample x3,1.09
same,"G3bp2 1421323_a_at (Group G1, Modules 20)",[3]; sample x3,1.04
same,"Gm9706///Isg15 1431591_s_at (Group G1, Modules 20)",[3]; sample x3,1.95
same,"H2-T10///H2-T22///H2-T9 1449875_s_at (Group G1, Modules 20)",[3]; sample x3,1.77
same,"Ifih1 1426276_at (Group G1, Modules 20)",[3]; sample x3,2.36
same,"Ifit1 1450783_at (Group G1, Modules 20)",[3]; sample x3,0.63
same,"Ifit3 1449025_at (Group G1, Modules 20)",[3]; sample x3,1.49
same,"Irf7 1417244_a_at (Group G1, Modules 20)",[3]; sample x3,2.37
same,"Irgm1 1418825_at (Group G1, Modules 20)",[3]; sample x3,2.02
same,"Mndal 1426906_at (Group G1, Modules 20)",[3]; sample x3,1.21
same,"Pml 1448757_at (Group G1, Modules 20)",[3]; sample x3,0.66
same,"Pml 1456103_at (Group G1, Modules 20)",[3]; sample x3,1.29
same,"Rnf213 1455500_at (Group G1, Modules 20)",[3]; sample x3,0.72
same,"Rsad2 1436058_at (Group G1, Modules 20)",[3]; sample x3,0.67
same,"Shisa5 1423986_a_at (Group G1, Modules 20)",[3]; sample x3,2.23
same,"Shisa5 1437503_a_at (Group G1, Modules 20)",[3]; sample x3,2.49
same,"Stat1 1450033_a_at (Group G1, Modules 20)",[3]; sample x3,1.05
same,"Stat1 1450034_at (Group G1, Modules 20)",[3]; sample x3,1.52
same,"Tdrd7 1426716_at (Group G1, Modules 20)",[3]; sample x3,0.94
same,"Tor1aip2 1418115_s_at (Group G1, Modules 20)",[3]; sample x3,0.54
same,"Tor1aip2 1418116_at (Group G1, Modules 20)",[3]; sample x3,0.89
same,"Tor1aip2 1435526_at (Group G1, Modules 20)",[3]; sample x3,1.22
same,"Trim12a 1437432_a_at (Group G1, Modules 20)",[3]; sample x3,1.68
same,"Uba7 1426970_a_at (Group G1, Modules 20)",[3]; sample x3,2.27
